In one test the target is T1, His6-TEV-PPARγ-(234-505) (Homo sapiens, UniProt P37231).
T1 construct: The His6-TEV-PPARγ-(234-505) protein for assay was expressed and purified; TEV cleavage site (N); made in house
T1 sequence (P37231 234-505): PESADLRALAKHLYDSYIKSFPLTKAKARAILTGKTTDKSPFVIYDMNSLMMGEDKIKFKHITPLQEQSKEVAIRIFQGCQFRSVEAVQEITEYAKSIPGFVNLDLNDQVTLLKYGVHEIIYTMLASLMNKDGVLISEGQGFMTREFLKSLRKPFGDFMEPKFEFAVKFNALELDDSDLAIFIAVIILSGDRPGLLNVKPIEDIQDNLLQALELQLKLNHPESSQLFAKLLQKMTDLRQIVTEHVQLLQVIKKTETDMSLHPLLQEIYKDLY
The test is described as follows: TR-FRET Assay to Measure Co-R Peptide Recruitment to PPARγ. Format: biochemical. The settings on record: Co-R peptide (SMRT-ID2) recruitment; top final concentration 20 μM; read-out: TR-FRET i-Ag; AC50. The essentials: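 Corepressor recruitment is measured by adding terbium-labeled anti-His antibody and FITC SMRT-ID2 peptide, at 5 and 200 nM final, after a 20-minute room-temperature protein–compound incubation. After one further hour, signal is converted to percent response between DMSO and 500 nM T0070907 wells.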

Another test concerns UM-UC-9 engineered cells. The test is described as follows: Cell proliferation / short-term viability assay, CellTiter-Glo 144 h. The class given is cell-based, human. The settings on record: read-out: CTGlo 144 h UMUC9.5, G150. The essentials:
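Viability read by CellTiter-Glo 2.0 luminescence at day 7 versus DMSO-vehicle wells and a T0 plate measured on day 0. Cells: UM-UC-9 engineered assay-ready stocks, 500 cells/well in high-glucose DMEM with 10% FBS, 37° C, 5% CO2.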

Like-named read-outs stand apart in the source and are kept apart here.

As for `CO[C@]1(C(F)(F)F)CC[C@@H](NC(=O)[C@H]2CCN(C(=O)c3cc(-c4cc(C)ncn4)[nH]n3)C3(CC3)C2)CC1` (single isomer, unassigned) [Example 309-A], the AC50 on His6-TEV-PPARγ-(234-505) is 2.9 nM. Also, the IC50 in the test with UM-UC-9 engineered cells (Homo sapiens, UM-UC-9, 144 h) came to 5.4 nM.
On the same counts, the results for `CO[C@]1(C(F)(F)F)CC[C@H](NC(=O)[C@H]2CCN(C(=O)c3cc(-c4cc(C)ncn4)[nH]n3)C3(CC3)C2)CC1` (single isomer, unassigned) [Example 309-B] are 49.5 nM and 302 nM.
On the same counts, the results for `CO[C@]1(C(F)(F)F)CC[C@@H](NC(=O)[C@@H]2CCN(C(=O)c3cc(-c4cc(C)ncn4)[nH]n3)C3(CC3)C2)CC1` (single isomer, unassigned) [Example 309-C] are 720 nM and 6200 nM.
On the same counts, the results for `CO[C@]1(C(F)(F)F)CC[C@H](NC(=O)[C@@H]2CCN(C(=O)c3cc(-c4cc(C)ncn4)[nH]n3)C3(CC3)C2)CC1` (single isomer, unassigned) [Example 309-D] are 1320 nM and 3680 nM.
In the case of `CCO[C@]1(C(F)(F)F)CC[C@@H](NC(=O)[C@@H]2CCN(C(=O)c3cc(-c4cc(OC)ncc4F)[nH]n3)C3(CC3)C2)CC1` (single isomer, unassigned) [Example 312-A], the AC50 at His6-TEV-PPARγ-(234-505) is 172 nM. Moreover, the IC50 in the test on UM-UC-9 engineered cells (Homo sapiens, UM-UC-9, 144 h) stood at 493 nM.
For `CCO[C@]1(C(F)(F)F)CC[C@@H](NC(=O)[C@H]2CCN(C(=O)c3cc(-c4cc(OC)ncc4F)[nH]n3)C3(CC3)C2)CC1` (single isomer, unassigned) [Example 312-B] the same measures were 2.5 nM and 1.8 nM.
On the same counts, the results for `COc1cc(-c2cc(C(=O)N3CC[C@@H](C(=O)NCC45CCC(O)(CC4)CC5)CC34CC4)n[nH]2)c(F)cn1` (single isomer, unassigned) [Example 313-A] are 1290 nM and 3890 nM.
On the same counts, the results for `COc1cc(-c2cc(C(=O)N3CC[C@H](C(=O)NCC45CCC(O)(CC4)CC5)CC34CC4)n[nH]2)c(F)cn1` (single isomer, unassigned) [Example 313-B] are 3.5 nM and 13.9 nM.
As for `COc1cc(-c2cc(C(=O)N3CCC(C(=O)NCC45CCC(O)(CC4)C5)CC34CC4)n[nH]2)c(F)cn1` (single isomer, unassigned) [Example 333-A], the AC50 at His6-TEV-PPARγ-(234-505) worked out at 1960 nM. Besides, the IC50 in the test with UM-UC-9 engineered cells was 9440 nM.
For `COc1cc(-c2cc(C(=O)N3CCC(C(=O)NCC45CCC(O)(CC4)C5)CC34CC4)n[nH]2)c(F)cn1` (single isomer, unassigned) [Example 333-B] the same measures were 6.7 nM and 33.2 nM.
On the same counts, the results for `COc1cc(-c2cc(C(=O)N3CCC(C(=O)NC4CCC(O)(C(F)(F)F)CC4)CC34CC4)n[nH]2)ncn1` (single isomer, unassigned) [Example 338-A] are 9.3 nM and 16.2 nM.
For `COc1cc(-c2cc(C(=O)N3CCC(C(=O)NC4CCC(O)(C(F)(F)F)CC4)CC34CC4)n[nH]2)ncn1` (single isomer, unassigned) [Example 338-B] the same measures were 723 nM and 1320 nM.
Consider `Cc1cc(-c2cc(C(=O)N3CCC(C(=O)NC4CCC(O)(C(F)(F)F)CC4)CC34CC4)n[nH]2)ncn1` (single isomer, unassigned) [Example 339-A], for which, at His6-TEV-PPARγ-(234-505), the AC50 was 476 nM. Moreover, in the test on UM-UC-9 engineered cells, the IC50 is 3800 nM.
On the same counts, the results for `Cc1cc(-c2cc(C(=O)N3CCC(C(=O)NC4CCC(O)(C(F)(F)F)CC4)CC34CC4)n[nH]2)ncn1` (single isomer, unassigned) [Example 339-B] are 6.9 nM and 19.5 nM.
In the case of `COc1cc(-c2cc(C(=O)N3CCC(C(=O)NC4CCC(OCC(C)OC)(C(F)(F)F)CC4)CC34CC4)n[nH]2)c(F)cn1` (single isomer, unassigned) [Example 340-A], the AC50 at His6-TEV-PPARγ-(234-505) stood at 6.5 nM. The IC50 in the test with UM-UC-9 engineered cells was 4.4 nM.
For `COc1cc(-c2cc(C(=O)N3CCC(C(=O)NC4CCC(OCC(C)OC)(C(F)(F)F)CC4)CC34CC4)n[nH]2)c(F)cn1` (single isomer, unassigned) [Example 340-B] the same measures were 19 nM and 10.7 nM.
For `COc1cc(-c2cc(C(=O)N3CCC(C(=O)NCC4CCc5[nH]ncc5C4)CC34CC4)n[nH]2)c(F)cn1` (single isomer, unassigned) [Example 341-A] the same measures were 6.1 nM and 6.6 nM.
On the same counts, the results for `COc1cc(-c2cc(C(=O)N3CCC(C(=O)NCC4CCc5[nH]ncc5C4)CC34CC4)n[nH]2)c(F)cn1` (single isomer, unassigned) [Example 341-B] are 8.1 nM and 12.2 nM.
Take `COc1cc(-c2cc(C(=O)N3CCC(C(=O)NCC4CCn5cncc5C4)CC34CC4)n[nH]2)c(F)cn1` (single isomer, unassigned) [Example 342-A]: the AC50 on His6-TEV-PPARγ-(234-505) is 50.8 nM. Further, the IC50 in the test on UM-UC-9 engineered cells was 1210 nM.
On the same counts, the results for `COc1cc(-c2cc(C(=O)N3CCC(C(=O)NCC4CCn5cncc5C4)CC34CC4)n[nH]2)c(F)cn1` (single isomer, unassigned) [Example 342-B] are 42.8 nM and 682 nM.
On the same counts, the results for `COc1cc(-c2cc(C(=O)N3CCC(C(=O)NCC4CCn5c(C)nnc5C4)CC34CC4)n[nH]2)c(F)cn1` (single isomer, unassigned) [Example 346-A] are 504 nM and 2790 nM.
On the same counts, the results for `COc1cc(-c2cc(C(=O)N3CCC(C(=O)NCC4CCn5c(C)nnc5C4)CC34CC4)n[nH]2)c(F)cn1` (single isomer, unassigned) [Example 346-B] are 1120 nM and 2410 nM.
Consider `COc1cc(-c2cc(C(=O)N3CCC(NC(=O)C4CCC(O)(C(F)(F)F)CC4)CC34CC4)n[nH]2)c(F)cn1` (single isomer, unassigned) [Example 347-A], for which the AC50 on His6-TEV-PPARγ-(234-505) amounted to 81.6 nM. Besides, in the test on UM-UC-9 engineered cells, the IC50 was determined as 396 nM.
On the same counts, the results for `COc1cc(-c2cc(C(=O)N3CCC(NC(=O)C4CCC(O)(C(F)(F)F)CC4)CC34CC4)n[nH]2)c(F)cn1` (single isomer, unassigned) [Example 347-B] are 198 nM and 600 nM.
On the same counts, the results for `COc1cc(-c2cc(C(=O)N3CCC(NC(=O)C4CCC(O)(C(F)(F)F)CC4)CC34CC4)n[nH]2)c(F)cn1` (single isomer, unassigned) [Example 347-C] are 5080 nM and above 10000 nM.
For `COc1cc(-c2cc(C(=O)N3CCC(NC(=O)C4CCC(O)(C(F)(F)F)CC4)CC34CC4)n[nH]2)c(F)cn1` (single isomer, unassigned) [Example 347-D] the same measures were at least 20000 nM and above 10000 nM.
Regarding `COc1cc(-c2cc(C(=O)N3CCC(C(=O)NC4CC(N5CCC(F)(F)C5)C4(C)C)CC34CC4)n[nH]2)c(F)cn1` (single isomer, unassigned) [Example 355-A], the AC50 at His6-TEV-PPARγ-(234-505) came out at 10.4 nM. Also, the IC50 with UM-UC-9 engineered cells came to 3.5 nM.
`COc1cc(-c2cc(C(=O)N3CCC(C(=O)NC4CC(N5CCC(F)(F)C5)C4(C)C)CC34CC4)n[nH]2)c(F)cn1` (single isomer, unassigned) [Example 355-B]: the AC50 on His6-TEV-PPARγ-(234-505) was 9.4 nM. Also, the IC50 in the test on UM-UC-9 engineered cells was found to be 3.3 nM.
For `COc1cc(-c2cc(C(=O)N3CCC(C(=O)NC4CCC(O)(C(F)(F)F)CC4)CC3C(F)(F)F)n[nH]2)c(F)cn1` (single isomer, unassigned) [Example 367-A] the same measures were 56.7 nM and 161 nM.
On the same counts, the results for `COc1cc(-c2cc(C(=O)N3CCC(C(=O)NC4CCC(O)(C(F)(F)F)CC4)CC3C(F)(F)F)n[nH]2)c(F)cn1` (single isomer, unassigned) [Example 367-B] are 12.7 nM and 6.8 nM.
On the same counts, the results for `COc1cc(-c2cc(C(=O)N3CC[C@H](C(=O)NC4CCC(O)(C(C)(F)F)CC4)CC34CC4)n[nH]2)c(F)cn1` (single isomer, unassigned) [Example 375-A] are 3.4 nM and 1.3 nM.
`COc1cc(-c2cc(C(=O)N3CC[C@H](C(=O)NC4CCC5CCCN5C4)CC34CC4)n[nH]2)c(F)cn1` (single isomer, unassigned) [Example 376-A]: the AC50 on His6-TEV-PPARγ-(234-505) was found to be 897 nM. In addition, in the test with UM-UC-9 engineered cells, the IC50 stood at 1730 nM.
For `COc1cc(-c2cc(C(=O)N3CC[C@H](C(=O)NC4CCC5CCCN5C4)CC34CC4)n[nH]2)c(F)cn1` (single isomer, unassigned) [Example 376-B] the same measures were 1600 nM and 3880 nM.
On the same counts, the results for `COc1cc(-c2cc(C(=O)N3CC[C@H](C(=O)NC4CCC5CCCN5C4)CC34CC4)n[nH]2)c(F)cn1` (single isomer, unassigned) [Example 376-C] are 19.2 nM and 23.6 nM.
Regarding `COc1cc(-c2cc(C(=O)N3CC[C@H](C(=O)NC4CCC5CCCN5C4)CC34CC4)n[nH]2)c(F)cn1` (single isomer, unassigned) [Example 376-D], the AC50 at His6-TEV-PPARγ-(234-505) stood at 129 nM. Also, the IC50 in the test on UM-UC-9 engineered cells turned out to be 71.4 nM.
